Source: patent US11667638B2, “4-substitued cytisine analogues” (The University of Bristol, priority 2016, dated 2023)

Legend:
(α4)3(β2)2 nAChRs = (α4)3(β2)2 nAChRs (Homo sapiens (Human), UniProt P17787+P43681); assay: Maximal gating efficacy on (α4)3(β2)2 nAChRs in Xenopus oocytes, two electrode voltage clamp; type: cell-based; conditions: (α4)3(β2)2, low sensitivity stoichiometry; maximal current relative to 1 mM ACh
Experimental: (§1) Compounds of the invention were tested for effects on the function of human α4β2, α3β4 and α7 nicotinic acetylcholine receptors (nAChRs) expressed heterologously in Xenopus oocytes. […] Expression in oocytes was obtained as follows: pCI (Promega, UK) plasmid containing human α4, β2, β4 or α7 complementary DNA were injected as previously described (Moroni et al., 2006). To express (α4)3(β2)2 nACh receptors, a mixture of 10α4:1β2 cDNAs was injected into the nucleus of oocytes, whereas for (α4)2(β2)3 receptors the cDNA ratio injected was 1α4:10β2.
(§2) Functional studies: Recordings were performed manually using a Geneclamp amplifier (Molecular Devices, USA) or using an automated HiClamp system. In both cases the oocytes were impaled with two electrodes filled with 3 M KCl and the cells were held at −60 mV throughout the experiments.
(§3) Oocyte isolation and two-electrode voltage-clamp recordings on oocytes were carried out as previously described (Moroni et al., 2006; Carbone et al., 2009). […] A minimum interval of 5 min was allowed between agonist applications to ensure reproducible recordings. Oocytes were exposed to increasing concentrations of the compounds until no further increases in the response amplitude were obtained. This concentration was taken as the concentration that causes maximal responses on the receptors tested. The data summarised in Tables 1-4 were obtained from at least 5 experiments carried out on oocytes obtained from at least three different donors.
Maximal gating efficacy of the compounds: The concentration of the compounds of the invention causing maximal activation of the (α4)3(β2)2 nAChRs expressed heterologously in Xenopus oocytes was determined using two electrode voltage clamping.

α3β4 nAChRs = α3β4 nAChRs (Homo sapiens (Human), UniProt P30926+P32297); assay: Maximal gating efficacy on α3β4 nAChRs in Xenopus oocytes, two electrode voltage clamp; type: cell-based; conditions: maximal current relative to 1 mM ACh
Chain of α3β4 nAChRs (P32297 32-505): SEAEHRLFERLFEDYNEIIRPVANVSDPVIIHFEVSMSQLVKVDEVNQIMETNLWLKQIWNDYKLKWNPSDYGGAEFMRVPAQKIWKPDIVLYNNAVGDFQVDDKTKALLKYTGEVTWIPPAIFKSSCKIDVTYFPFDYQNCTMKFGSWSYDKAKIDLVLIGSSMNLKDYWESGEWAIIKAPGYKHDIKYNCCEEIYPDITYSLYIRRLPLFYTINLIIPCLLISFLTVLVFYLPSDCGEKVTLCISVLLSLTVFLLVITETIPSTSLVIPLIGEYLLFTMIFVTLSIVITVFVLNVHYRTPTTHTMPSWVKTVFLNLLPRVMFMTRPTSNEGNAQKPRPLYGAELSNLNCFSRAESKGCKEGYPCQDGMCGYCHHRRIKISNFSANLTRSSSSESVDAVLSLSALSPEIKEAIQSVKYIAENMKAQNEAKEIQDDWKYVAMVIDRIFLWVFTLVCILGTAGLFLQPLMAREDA
Chain of α3β4 nAChRs (P30926 22-498): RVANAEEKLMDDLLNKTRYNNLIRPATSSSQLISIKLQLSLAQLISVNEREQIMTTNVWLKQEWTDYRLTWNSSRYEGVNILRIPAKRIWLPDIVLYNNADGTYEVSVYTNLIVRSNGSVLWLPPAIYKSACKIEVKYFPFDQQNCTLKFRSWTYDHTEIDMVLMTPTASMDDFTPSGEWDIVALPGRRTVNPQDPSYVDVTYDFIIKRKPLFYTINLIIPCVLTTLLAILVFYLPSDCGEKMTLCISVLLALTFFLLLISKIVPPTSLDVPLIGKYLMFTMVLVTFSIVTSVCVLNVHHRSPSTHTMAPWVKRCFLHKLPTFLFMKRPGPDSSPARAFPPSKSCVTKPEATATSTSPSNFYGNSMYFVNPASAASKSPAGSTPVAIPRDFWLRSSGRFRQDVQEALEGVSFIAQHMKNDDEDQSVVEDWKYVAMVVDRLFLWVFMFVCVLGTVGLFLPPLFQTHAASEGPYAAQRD
Experimental: as §1, §2, §3
Maximal gating efficacy of the compounds on α3β4 nAChRs: The concentration of the compounds causing maximal activation of α3β4 nAChRs expressed heterologously in Xenopus oocytes was determined using two electrode voltage clamping.

(α4)2(β2)3 nAChRs = (α4)2(β2)3 nAChRs (Homo sapiens (Human), UniProt P17787+P43681); assay: Maximal gating efficacy on (α4)2(β2)3 nAChRs in Xenopus oocytes, two electrode voltage clamp; type: cell-based; conditions: (α4)2(β2)3, high sensitivity receptors; maximal current relative to 1 mM ACh
Chain of (α4)2(β2)3 nAChRs (P43681 29-627): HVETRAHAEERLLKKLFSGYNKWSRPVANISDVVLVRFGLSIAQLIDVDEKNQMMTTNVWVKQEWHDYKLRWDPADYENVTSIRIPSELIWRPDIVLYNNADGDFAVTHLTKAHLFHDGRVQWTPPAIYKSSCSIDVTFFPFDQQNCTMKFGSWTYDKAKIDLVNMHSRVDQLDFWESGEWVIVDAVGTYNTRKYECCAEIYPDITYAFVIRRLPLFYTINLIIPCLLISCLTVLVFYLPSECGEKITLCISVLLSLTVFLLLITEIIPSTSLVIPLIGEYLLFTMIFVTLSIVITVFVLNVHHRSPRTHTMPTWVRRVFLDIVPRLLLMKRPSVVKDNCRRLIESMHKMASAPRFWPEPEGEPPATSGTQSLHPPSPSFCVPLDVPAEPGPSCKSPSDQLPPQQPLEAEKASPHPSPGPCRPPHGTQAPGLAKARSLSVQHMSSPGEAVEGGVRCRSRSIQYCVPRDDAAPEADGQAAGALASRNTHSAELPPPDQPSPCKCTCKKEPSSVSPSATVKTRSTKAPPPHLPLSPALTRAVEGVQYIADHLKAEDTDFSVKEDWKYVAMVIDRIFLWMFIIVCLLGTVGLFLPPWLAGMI
Chain of (α4)2(β2)3 nAChRs (P17787 26-502): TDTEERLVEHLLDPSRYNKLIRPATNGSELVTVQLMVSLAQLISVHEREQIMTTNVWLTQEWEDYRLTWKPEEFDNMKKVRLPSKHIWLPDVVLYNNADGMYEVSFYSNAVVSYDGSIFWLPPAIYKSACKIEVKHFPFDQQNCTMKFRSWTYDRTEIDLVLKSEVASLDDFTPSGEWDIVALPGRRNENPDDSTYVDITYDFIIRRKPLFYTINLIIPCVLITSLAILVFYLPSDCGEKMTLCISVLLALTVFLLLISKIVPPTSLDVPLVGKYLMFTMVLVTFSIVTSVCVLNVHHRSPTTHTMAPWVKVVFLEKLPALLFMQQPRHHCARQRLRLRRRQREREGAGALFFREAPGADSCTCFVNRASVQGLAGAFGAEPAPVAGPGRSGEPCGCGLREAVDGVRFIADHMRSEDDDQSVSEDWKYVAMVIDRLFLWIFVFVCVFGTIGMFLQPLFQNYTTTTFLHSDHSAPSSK
Experimental: as §1, §2, §3
Maximal gating efficacy of compounds on (α4)2(β2)3 receptors (high sensitivity receptors): The concentration of the compounds causing maximal activation of the (α4)2(β2)3 nAChRs expressed heterologously in Xenopus oocytes was determined using two electrode voltage clamping.

α4β2 nAChR = α4β2 nAChR (Homo sapiens (Human), UniProt P17787+P43681); type: binding; conditions: ratio of Ki values
Chain of α4β2 nAChR (P43681 29-627 limits assumed): as the sequence (P43681 29-627) above
Chain of α4β2 nAChR (P17787 26-502 limits assumed): as the sequence (P17787 26-502) above
Experimental: HEK 293 cells were grown in Dulbecco's modified Eagle medium supplemented with 10% fetal bovine serum, 1% L-Glutamine, 100 units/ml penicillin G, and 100 μg/streptomycin in a humidified atmosphere containing 10% CO2. The cDNAs encoding α3 and β4 or α4 and β2 (were transfected into the HEK 293 cells at 30% confluency). The cell transfections were carried out in 100 mm Petri dishes using 30 μL of JetPEI™ (Polypus, France) (1 mg/ml, pH 7.2) and 3 μg of each cDNA. After 24 h transfection, the cells were collected, washed with PBS by centrifugation, and used for binding analysis.
[^3H]-epibatidine saturation binding experiments to HEK transfected α3β4 or α4β2 receptors were performed by means of overnight incubation at 4° C. at concentrations ranging from 0.005 to 1 nM in a buffer containing 50 mM Tris-HCl, pH 7, 150 mM NaCl, 5 mM KCl, 1 mM MgCl2, 2.5 mM CaCl2 and 2 mg/ml BSA, in the presence (aspecific binding) or absence (total binding) of 100 nM cold epibatidine. Specific ligand binding was defined as total binding minus the binding in the presence of 100 nM cold epibatidine.
After incubation, the membranes of HEK cells transfected with α4β2* or α3β4 subtypes were washed by filtration on GFC filters with ice-cold PBS. The GFC filters were pre-soaked in polyethylenimine and filtered through an harvester apparatus. [^3H]-epibatidine binding was determined by means of liquid scintillation counting in a beta counter.
The ligand binding data were analyzed by means of nonlinear regression using Prism version 5 (GraphPad Software, Inc., La Jolla, Calif.). The Ki values were calculated from the experimental IC50 values using the Cheng-Prusoff equation for a single population of competitive sites: Ki=IC50/[1+(L/Kd)], where L is the concentration of radioligand used in each experiment and the Kd values were determined by saturation binding experiment. All of the assays were performed in duplicate and repeated at least two-three times.

Chain of (α4)3(β2)2 nAChRs (P43681 29-627): as the sequence (P43681 29-627) above
Chain of (α4)3(β2)2 nAChRs (P17787 26-502): as the sequence (P17787 26-502) above

| Molecule | Relative efficacy (ACh) ((α4)3(β2)2 nAChRs) | Relative efficacy (ACh) (α3β4 nAChRs) | Relative efficacy (ACh) ((α4)2(β2)3 nAChRs) | Ratio α3β4/α4β2 (α4β2 nAChR) |
| --- | --- | --- | --- | --- |
| O=c1c(Br)c(O)cc2n1CC1CNCC2C1 (single isomer, unassigned; (-)) [BS70, (−)-(3-bromo-4-hydroxy)cytisine] | 0.114 ± 0.113 | 0.108 ± 0.149 | – | – |
| CNc1cc2n(c(=O)c1Br)CC1CNC[C@@H]2C1 (single isomer, unassigned; (+)) [Compound 158, (+)3-Bromo-4-N-methylaminocytisine] | 0.049 ± 0.012 | 0.057 ± 0.016 | 0.038 ± 0.054 | 106.9 |
| Cl.O=c1cc(CC(F)(F)F)cc2n1CC1CNC[C@@H]2C1 (single isomer, unassigned; (-)) [Compound 79, (−)4-(2,2,2-Trifluoroethyl)cytisine] | – | – | – | 27.4 |
| O=c1cc(-c2nnn[nH]2)cc2n1CC1CNC[C@@H]2C1 (single isomer, unassigned; (-)) [Compound 149, (−)4-tetrazoylcytisine] | – | – | – | 149.2 |
| Cl.NC(=O)c1cc2n(c(=O)c1)CC1CNC[C@@H]2C1 (single isomer, unassigned; (-)) [Compound 142, (−)4-(carboxyamido)cytisine] | – | – | – | 36.2 |
| (−)4-(3-Pyridinyl)cytisine [Compound 104] | – | – | – | 168.7 |
| O=C(O)c1cc2n(c(=O)c1)CC1CNC[C@@H]2C1 (single isomer, unassigned; (-)) [Compound 120, (−)4-Carboxylic acidcytisine] | – | – | – | 57.7 |
| Cl.O=c1c(C(F)(F)F)c(Br)cc2n1CC1CNC[C@@H]2C1 (single isomer, unassigned; (-)) [Compound 162, (−)3-(Trifluoromethyl)-4-bromocytisine] | 0.072 ± 0.026 | 0.250 ± 0.077 | 0.042 ± 0.060 | 136.4 |
| CNc1cc2n(c(=O)c1)CC1CNC[C@@H]2C1 (single isomer, unassigned; (+)) [Compound 84, (+)4-(N-Methylamino)cytisine] | 0.048 ± 0.040 | 0.0233 ± 0.005 | 0.042 ± 0.059 | 2546.3 |
| CC(=O)NCc1cc2n(c(=O)c1)CC1CNC[C@@H]2C1.Cl (single isomer, unassigned; (-)) [Compound 148] | 0.041 ± 0.057 | 0.034 ± 0.038 | 0.015 ± 0.021 | 204.8 |
| Cl.O=c1cc(/C=C/c2ccccc2)cc2n1CC1CNC[C@@H]2C1 (single isomer, unassigned; (+)) [Compound 114, (+)4-(E-(2-phenylethenyl))cytisine] | – | – | – | 145.5 |
| CN(C)Cc1cc2n(c(=O)c1)CC1CNC[C@@H]2C1 [Compound 151, 4-(dimethylamino)methyl-(−)-cytisine] | – | – | – | 105.7 |
| O=c1cc(N2CCOCC2)cc2n1CC1CNC[C@@H]2C1 (single isomer, unassigned; (+)) [Compound 92, (+)4-N-morpholinecytisine] | – | – | – | 70.6 |
| O=c1cc(NCc2ccccc2)cc2n1CC1CNC[C@@H]2C1 [Compound 78] | – | – | – | 125.0 |
| Cl.O=c1cc(C(F)(F)F)cc2n1CC1CNC[C@@H]2C1 (single isomer, unassigned; (-)) [Compound 77, (−)4-Trifluoromethylcytisine] | – | – | – | 12.9 |
| C=Cc1cc2n(c(=O)c1)CC1CNC[C@@H]2C1 (single isomer, unassigned; (+)) [Compound 116, (+)4-Vinylcytisine] | – | – | – | 100.1 |

| Molecule | Relative efficacy (ACh) ((α4)3(β2)2 nAChRs) | Relative efficacy (ACh) (α3β4 nAChRs) | Relative efficacy (ACh) ((α4)2(β2)3 nAChRs) | Ratio α3β4/α4β2 (α4β2 nAChR) |
| --- | --- | --- | --- | --- |
| O=C(O)[C@@H]1CCCN1c1cc2n(c(=O)c1)CC1CNC[C@@H]2C1 (single isomer, unassigned; (-)) [Compound 138, (−)4-(N-(L-proline)cytisine] | – | – | – | 2.7 |
| CCNc1cc2n(c(=O)c1)CC1CNCC2C1 (single isomer, unassigned; (+)) [Compound 87, (+)4-(N-ethylamino)cytisine] | 0.011 ± 0.001 | 0.010 ± 0.009 | 0.023 ± 0.032 | 835.2 |
| Cl.O=c1cc(C#Cc2ccccc2)cc2n1CC1CNC[C@@H]2C1 (single isomer, unassigned; (+)) [Compound 129, (+)4-(phenylacetylene)cytisine] | – | – | – | 32.2 |
| O=c1cc(N2CCNCC2)cc2n1CC1CNC[C@@H]2C1 (single isomer, unassigned; (+)) [Compound 90, (+)4-(N-piperazinyl)cytisine] | – | – | – | 14.1 |
| NCc1cc2n(c(=O)c1)CC1CNC[C@@H]2C1 (single isomer, unassigned; (-)) [Compound 144, (−)4-(aminomethyl)cytisine] | – | – | – | 78.0 |
| Nc1cc2n(c(=O)c1Br)CC1CNCC2C1 (single isomer, unassigned; (+)) [BS71, (+)-(3-bromo-4-amino)cytisine] | 0.152 ± 0.1223 | 0.632 ± 0.067 | – | – |
| CN(C)c1cc2n(c(=O)c1)CC1CNC[C@@H]2C1 (single isomer, unassigned; (+)) [Compound 86, (+)4-(N,N′-dimethylamino)cytisine] | – | – | – | 5.8 |
| NCC(=O)Nc1cc2n(c(=O)c1)CC1CNC[C@@H]2C1 [Compound 98] | – | – | – | 1670.0 |
| CCc1cc2n(c(=O)c1Br)CC1CNCC2C1 (single isomer, unassigned; (-)) [BS74, (−)-(3-bromo-4-ethyl)cytisine] | 0.126 ± 0.067 | 1.75 ± 0.56 | 0.121 ± 0.171 | – |
| Cl.O=c1cc(CCc2ccccc2)cc2n1CC1CNC[C@@H]2C1 [?] | – | – | – | 21.7 |
| CC(=O)OCC[N+](C)(C)C [ACh, reference compound] | 1 | 1.0 | 1.0 | – |
| (+)4-(E-2-propenoate methyl ester)cytisine [Compound 112] | – | – | – | 152.8 |
| Cl.O=c1ccccn1-c1cc2n(c(=O)c1)CC1CNC[C@@H]2C1 (single isomer, unassigned; (-)) [Compound 108, (−)4-(N-2-pyridone)cytisine] | – | – | – | 90.3 |
| CNCc1cc2n(c(=O)c1)CC1CNC[C@@H]2C1 (single isomer, unassigned; (-)) [Compound 152, (−)4-((N-methyl)aminomethyl)cytisine] | 0.031 ± 0.043 | – | – | 807.0 |
| O=C(Nc1cc2n(c(=O)c1)CC1CNC[C@@H]2C1)c1ccccc1 (single isomer, unassigned; (+)) [Compound 96, (+)4-(N-Benzoylamino)cytisine] | – | – | – | 89.6 |
| Cl.O=c1c(Br)c(I)cc2n1CC1CNC[C@@H]2C1 (single isomer, unassigned; (+)) [Compound 160, (+)3-Bromo-4-iodocytisine] | – | – | – | 50.0 |
